Test results: patent publication US9683009B2, “Bone-selective osteogenic oxysterol-bone targeting agents” (The Regents of the University of California, priority 2013, dated 2017)

Experiments:
[1] = test system: M2-10B4 bone marrow stromal cells; experiment: osteogenic differentiation / ALP enzymatic activity in M2-10B4 bone marrow stromal cells; assay type: cell-based; details: M2-10B4 cells; for ALP Activity: ± SD; for EC50: read-out: EC50 based on activation of ALP
Procedure: Osteogenic differentiation was assessed by the induction of alkaline phosphatase (ALP) enzymatic activity, as well as induced expression of osteogenic differentiation marker genes ALP, bone sialoprotein (BSP), and osterix (OSX).

C3H10T1/2 cells = experiment: alkaline phosphatase activity in C3H10T1/2 cells after 4 days of treatment; assay type: cell-based; details: 1 μM
Procedure: [drawing 19] (In Oxy133 the 6-hydroxyl group is more reactive toward succinic anhydride than the 3-hydroxyl.) The resulting conjugate, OXY149, retains most of the osteogenic activity of the parent Oxy133 in C3H10T1/2 cells determined by the level of induction of osteogenic differentiation marker, alkaline phosphatase activity after 4 days of treatment (Control: 2±1; Oxy133 (1 μM): 390±10; Oxy149 (1 μM): 100±12; Oxy149 (5 μM): 500±18; Oxy149 (10 μM); 480±12; Oxy149 (20 μM): 470±25). BTA-linker 1 can be attached via the 3- and/or 6-positions of OXY133 using tunable linker attachments.

[2] = half-life in human liver microsomes; assay type: in vitro ADME; details: read-out: half-life in human liver microsomes (HLM)
Excerpt: Naturally-occurring oxysterols, 20(S)-hydroxycholesterol, 22(S)-hydroxycholesterol and 22(R)-hydroxycholesterol can be used as potential osteogenic agents (Kha; Richardson; Amantea). A series of potent osteogenic oxysterol analogues was identified, which are efficacious both in vitro and in vivo. Members of this family of semi-synthetic oxysterols induce robust bone formation and spine fusion in rats when applied locally between transverse processes via a collagen sponge (T. S. Johnson). The compound OXY133 is an analog in the series with enhanced osteogenic activity (FIG. 1) (Montgomery). Oxy133 can induce osteogenesis in cultured human primary mesenchymal stem cells and induce spine fusion in rats in an accelerated manner compared to other analogues. Oxy133 can induce robust osteogenesis in non-rodent models of bone disease such as rabbit spine fusion and rabbit calvarial defect models. Oxy133 is a drug development candidate for local administration with potential application in spine fusion and repair of non-union fractures. […] Furthermore, due to the possible mechanism of osteogenesis, a transient activation of the Hh-pathway in MSCs, increasing selectivity for bone tissue while minimizing the exposure to other tissues may be prudent. This can be accomplished by linking a bone targeting agent (BTA) to the oxysterol molecule that selectively delivers it to bone.

Hedgehog (Hh) signaling = experiment: Hedgehog signaling activation: expression of Hh target genes Ptch and HIP in M2-10B4 cells; assay type: cell-based
Procedure: The expression of Ptch gene in M2-10B4 cells in vitro 4 days after initial contact with each oxysterol at a concentration of 1 μM is shown in FIG. 8. The expression of HIP gene in M2-10B4 cells in vitro 4 days after initial contact with each oxysterol at a concentration of 1 μM is shown in FIG. 9.

[3] = in vitro hydroxyapatite (HAP) binding assay; details: for binding to HAP (in words): in vitro, estradiol at 20 μM; for % Binding to Hydroxyapatite: 20 μM analyte, HAP 50 mg/mL, 50 mM Tris-HCl pH 7.5, 20% DMSO, 10 minutes
Procedure: An in vitro HAP binding assay was conducted as follows. A 1 mM solution of each analyte was made in 100% dimethylsulfoxide (DMSO). A further dilution was then made to form a 20 μM solution of each analyte in 50 mM Tris-HCl Buffer at pH 7.5 with 20% DMSO. […] The HAP concentration used was 50 mg/mL.
For each analyte, samples were prepared in triplicate. The control samples (1 mL of 20 μM analyte) were transferred into a microcentrifuge tube. To a second set of samples (1 mL of 20 μM analyte) in a microcentrifuge tube was added 50 mg of HAP. The samples were vortexed, gently mixed with inversion for 10 minutes at room temperature, and then centrifuged at 4,400 rpm for 2 minutes to sediment the HAP contained in the samples. The supernatant was transferred to another set of microcentrifuge tubes.
An electronic spectral scan (ultraviolet-visible) from 220-520 nm was obtained for each analyte using a Bio-Rad Smart-Spec 3000. The blank was 50 mM Tris-HCl Buffer, pH 7.5, 20% DMSO. The wavelength of maximum absorbance (λmax) was determined, and the extinction coefficient (ε) was calculated using the Beer-Lambert Law.
The absorbance of the samples incubated with HAP was measured at λmax and the molar concentration of the analyte was then determined using the Beer-Lambert Law and the previously calculated ε. The concentration of the analytes 17β-estradiol, Oxy149, Oxy153, and Oxy155 without and with contact with HAP is shown in FIG. 10.
The fraction of analyte absorbed to HAP for each sample was subsequently calculated using the following formula for % binding, (Ho−H)/Ho*100=% binding with Ho being the mean concentration of control samples and H being the mean calculated concentration of samples treated with HAP.

[4] = oxysterol + cyclopamine (Cyc; 5 μM)

Row | SMILES | ALP Activity ([1]; oxysterol 1 μM) | ALP Activity [1, 4] | alkaline phosphatase activity (C3H10T1/2 cells) | half-life [2] | osteogenic differentiation (ALP activity, ALP, BSP, OSX gene expression) [1] | EC50 [1] | activation of Hedgehog (Hh) signaling by induced expression of Ptch and HIP (Hedgehog (Hh) signaling) | binding to HAP (in words) [3] | % Binding to Hydroxyapatite [3]
1 | CCCCCC[C@](C)(O)[C@H]1CC[C@H]2[C@@H]3C[C@H](O)[C@H]4C[C@@H](O)CC[C@]4(C)[C@H]3CC[C@@]21C [Oxy133, reference compound] | 714 ± 5 units/mg protein | 31 ± 7 units/mg protein | 390±10 | < 5 min |  |  |  |  | 
2 | CCCCCCC(C)(O)C1CCC2C3CC(OC(=O)C(N)CC(=O)NCCOCCOCC(=O)Nc4ccc(OC)c(C(N)=O)c4O)C4CC(O)CCC4(C)C3CCC21C (stereo not shown) [Oxy154] | 390 ± 68 units/mg protein | 18 ± 2 units/mg protein |  |  | induce osteogenic differentiation | 630 nM | activate Hedgehog (Hh) signaling | can bind hydroxyapatite (HAP) | 
3 | CCCCCCC(C)(O)C1CCC2C3CC(OC(=O)C(N)CC(=O)NCCOCCOCC(=O)Nc4ccc(OC)c(C(N)=O)c4O)C4CC(OC(=O)C(N)CC(=O)NCCOCCOCC(=O)Nc5ccc(OC)c(C(N)=O)c5O)CCC4(C)C3CCC21C (stereo not shown) [Oxy155] | 582 ± 8 units/mg protein | 39 ± 2 units/mg protein |  |  | induce osteogenic differentiation | 330 nM | activate Hedgehog (Hh) signaling | can bind hydroxyapatite (HAP) | 76.68%
4 | C[C@]12CC[C@@H]3c4ccc(O)cc4CC[C@H]3[C@@H]1CC[C@@H]2O [17β-estradiol, reference compound] |  |  |  |  |  |  |  | no binding to HAP | −1.95%
